# In patent publication US9645154B2, “Method for detecting cancer cell” (ARKRAY, Inc., priority 2010, dated 2017):
# Assays:
# [1] = system: Breast cancer cell line MCF-7 and blood cells (leucocytes and erythrocytes); test: 2-NBDG incorporation observed visually under a fluorescence microscope; type: cell-based, human; conditions: sample 1, mixture of MCF-7 and blood cells, 37° C., 40 minutes
# Experimental: From venous blood of a healthy person, a […] and precipitates were separated by centrifugation according to the conventional method. From the […], a leucocyte layer and an erythrocyte layer were partially collected, and then resuspended in PBS to prepare a leucocyte sample and a erythrocyte sample, respectively.
# Breast cancer cell line MCF-7 (purchased from DS Pharma Biomedical Co., Ltd). was cultured at 37° C. with 5% (v/v) CO2 using α-MEM culture medium (Invitrogen, supplemented with 10% (v/v) FBS, 2 mM L-glutamine, 100 U/mL penicillin and 100 μg/mL streptomycin). Immediately before the test, the cells were harvested with 0.25% trypsin-EDTA and washed with PBS, thereby preparing a cancer cell line sample.
# To each of 300 μL (4×10^5 cells/mL) of the cancer cell line, the blood cells (leucocytes and erythrocytes) or a mixture thereof was added 30 μL of 10 mM 2-[N-(7-nitrobenz-2-oxa-1,3-diazol-4-yl)amino]-2-deoxy-D-glucose (2-NBDG) (Wako Pure Chemical Industries, Ltd.) according to the description in Table 2, thereby preparing samples 1 to 7. These samples were then incubated at 37° C. for 40 minutes. To the sample to which 2-NBDG was not added, a corresponding amount of PBS was added instead of 2-NBDG.
# After incubation, each sample was centrifuged at 2,000 rpm for 5 minutes (Hitachi Ltd.) to harvest the cells. To the harvested cells was added 10 μL of an anti-EpCAM antibody-PE (R&D systems), and the mixture was allowed to stand for 30 minutes in the cool and dark place.
# After 30 minutes, the mixture was washed with 1,000 μL of PBS, and the cells were harvested by centrifugation at 2000 rpm for 5 minutes in accordance with the conventional method.
# The harvested cells were resuspended in 50 μL of PBS, and the entire volume thereof was transferred to a 96-well plate, thereby preparing an observation sample.
# Each of the observation samples was observed under a fluorescence microscope (Nikon Corp.), and an amount of 2-NBDG incorporated was visually observed.
# [2] = system: human alveolar epithelial cancer cells (NCI-H358); test: Aminolevulinic acid (with FeCl2 and ascorbic acid) labeling, fluorescence microscopy image analysis (positive rate); type: cell-based; conditions: hemolyzed, 0.3 mM, 60 min, 37° C., threshold value 212
# Source text: (§1) The number of the cells was counted using a hemacytometer in accordance with the conventional method, and then 10^5 to 10^6 cells per sample (cell suspension) was aliquoted. The sample was centrifuged to remove the supernatant. Subsequently, aminolevulinic acid 5-AMINOLEVULINATE HYDROCHLORIDE (trade name, Cosmo Bio Co., Ltd., at the final concentration given in Table 7 or 8) dissolved in Dulbecco's PBS (+) and FeCl2 and ascorbic acid having the same concentration as that of aminolevulinic acid, respectively, were added thereto, and the cells were suspended well. The number of the cells was adjusted, and then the cells were added dropwise to a 384-well plate. The plate was centrifuged to spin down the cells. The image was captured with a fluorescence microscope (Nikon Corp.).
# (§2) The wavelengths for the fluorescence filter set: EX (excitation wavelength): 402±7.5, DM: 430 or longer, BA (fluorescence wavelength): 625±15.
# (§3) The acquired images were analyzed using an image analysis software NIS-ELEMENTS (trade name, Nikon Corp.) to evaluate the fluorescence intensity of the cell.
# (§4) In a manner similar to Example 4, each of human breast adenocarcinoma cells (Cell line name: MCF-7; DS Pharma Biomedical Co., Ltd.), human colon adenocarcinoma cells (Cell line name: SW620; DS Pharma Biomedical Co., Ltd.), human prostate cancer cells (Cell line name: PC3; DS Pharma Biomedical Co., Ltd.), human alveolar epithelial cancer cells (Cell line name: NCI-H358; DS Pharma Biomedical Co., Ltd.), human gastric cancer cells (Cell line name: SNU-1; ATCC) and human fibrosarcoma cells (Cell line name: HT1080; DS Pharma Biomedical Co., Ltd.) was detected with aminolevulinic acid.
# [3] = system: human fibrosarcoma cells (HT1080); test: as above; type: cell-based; conditions: hemolyzed, 0.3 mM, 60 min, 37° C., threshold value 203
# Source text: as §1, §2, §3, §4
# [4] = system: human colon adenocarcinoma cells (SW620); test: as above; type: cell-based; conditions: hemolyzed, 0.3 mM, 60 min, 37° C., threshold value 207
# Source text: as §1, §2, §3, §4
# [5] = system: human breast adenocarcinoma cells (MCF-7); test: as above; type: cell-based; conditions: hemolyzed, 0.3 mM, 60 min, 37° C., threshold value 268
# Source text: as §1, §2, §3, §4
# [6] = system: human prostate cancer cell line PC3; test: Aminolevulinic acid (with FeCl2 and ascorbic acid at the same concentration) labeling, fluorescence microscopy image analysis (positive rate); type: cell-based
# Source text: (§5) In accordance with the conventional method, cultured human prostate cancer cell line PC3 (DS Pharma Biomedical Co., Ltd.) was harvested with trypsin (Invitrogen). The human gastric cancer cell line SNU-1 (ATCC), which is a suspension cell line, was directly harvested without any trypsin treatment. The cell suspension of the harvested cancer cells was centrifuged, and the supernatant was removed. The cells were resuspended with Dulbecco's PBS (+) (Nissui Pharmaceutical Co., Ltd.) and centrifuged, and the supernatant was removed again.
# When performing the hemolyzing treatment, the collected blood cell fraction was hemolyzed using ammonium chloride (STEMCELL Technologies) at room temperature according to the manufacture's manuals.
# as §1, §2
# (§6) The acquired images were analyzed using an image analysis software NIS-ELEMENTS (trade name, Nikon Corp.) to evaluate the fluorescence intensity of the cell. […]
# [7] = system: human gastric cancer cells (SNU-1); test: Aminolevulinic acid (with FeCl2 and ascorbic acid) labeling, fluorescence microscopy image analysis (positive rate); type: cell-based; conditions: hemolyzed, 0.3 mM, 60 min, 37° C., threshold value 198
# Source text: as §5
# The number of the cells was counted using a hemacytometer in accordance with the conventional method, and then 10^5 to 10^6 cells per sample (cell suspension) was aliquoted. The sample was centrifuged to remove the supernatant. […] The image was captured with a fluorescence microscope (Nikon Corp.).
# as §2, §6
smiles,measurement,setting,value
"O=[N+]([O-])c1ccc(N[C@H]2C(O)O[C@H](CO)[C@@H](O)[C@@H]2O)c2nonc12 (stereo partly drawn) [2-NBDG, 2-[N-(7-nitrobenz-2-oxa-1,3-diazol-4-yl)amino]-2-deoxy-D-glucose]",fluorescence image of erythrocyte cell,[1],not observed at all
same,fluorescence intensity of the leucocyte cell image relative to the cancer cell,[1],equal to or less than half the fluorescence intensity of the cancer cell
same,observation of the cancer cell line in the fluorescence image,[1]; FIGS. 4 to 6,clearly observed
"NCC(=O)CCC(=O)O [aminolevulinic acid, 5-amino-4-oxopentanoic acid]",Positive rate (Cancer cells),[2],94.4%
same,Positive rate (Cancer cells),[3],94.6%
same,Positive rate (Cancer cells),[4],97.0%
same,Positive rate (Cancer cells),[5],86.7%
same,Positive rate (Cancer cells),"[6]; Prostate cancer, hemolyzed, 0.3 mM, 60 min, 37° C., threshold value 265",92.7%
same,Positive rate (PC3 cells),"[6]; hemolyzed, 0.1 mM, 37° C., 60 min",44%
same,Positive rate (PC3 cells),"[6]; hemolyzed, 0.3 mM, 37° C., 60 min (concentration series)",85%
same,Positive rate (PC3 cells),"[6]; hemolyzed, 1 mM, 37° C., 60 min",88%
same,Positive rate (PC3 cells),"[6]; hemolyzed, 4° C., 0.3 mM, 60 min",31%
same,Positive rate (PC3 cells),"[6]; hemolyzed, 23° C., 0.3 mM, 60 min",54%
same,Positive rate (PC3 cells),"[6]; hemolyzed, 37° C., 0.3 mM, 60 min (temperature series)",80%
same,Positive rate (PC3 cells),"[6]; hemolyzed, 30 min, 0.3 mM, 37° C.",59%
same,Positive rate (PC3 cells),"[6]; hemolyzed, 60 min, 0.3 mM, 37° C. (time series)",93%
same,Positive rate (PC3 cells),"[6]; hemolyzed, 120 min, 0.3 mM, 37° C.",92%
same,Positive rate (PC3 cells),"[6]; without hemolyzing treatment, 0.1 mM, 37° C., 60 min",54%
same,Positive rate (PC3 cells),"[6]; without hemolyzing treatment, 0.3 mM, 37° C., 60 min (concentration series)",88%
same,Positive rate (PC3 cells),"[6]; without hemolyzing treatment, 1 mM, 37° C., 60 min",94%
same,Positive rate (PC3 cells),"[6]; without hemolyzing treatment, 4° C., 0.3 mM, 60 min",13%
same,Positive rate (PC3 cells),"[6]; without hemolyzing treatment, 23° C., 0.3 mM, 60 min",18%
same,Positive rate (PC3 cells),"[6]; without hemolyzing treatment, 37° C., 0.3 mM, 60 min (temperature series)",83%
same,Positive rate (PC3 cells),"[6]; without hemolyzing treatment, 30 min, 0.3 mM, 37° C.",80%
same,Positive rate (PC3 cells),"[6]; without hemolyzing treatment, 60 min, 0.3 mM, 37° C. (time series)",81%
same,Positive rate (PC3 cells),"[6]; without hemolyzing treatment, 120 min, 0.3 mM, 37° C.",84%
same,Positive rate (Cancer cells),[7],81.6%
